Columns and labels:
TNAP activity = target: T1, TNAP activity (Mus musculus, UniProt P09242); set-up: endogenous in cells; conditions: cited from earlier work
T1 sequence (P09242 18-501): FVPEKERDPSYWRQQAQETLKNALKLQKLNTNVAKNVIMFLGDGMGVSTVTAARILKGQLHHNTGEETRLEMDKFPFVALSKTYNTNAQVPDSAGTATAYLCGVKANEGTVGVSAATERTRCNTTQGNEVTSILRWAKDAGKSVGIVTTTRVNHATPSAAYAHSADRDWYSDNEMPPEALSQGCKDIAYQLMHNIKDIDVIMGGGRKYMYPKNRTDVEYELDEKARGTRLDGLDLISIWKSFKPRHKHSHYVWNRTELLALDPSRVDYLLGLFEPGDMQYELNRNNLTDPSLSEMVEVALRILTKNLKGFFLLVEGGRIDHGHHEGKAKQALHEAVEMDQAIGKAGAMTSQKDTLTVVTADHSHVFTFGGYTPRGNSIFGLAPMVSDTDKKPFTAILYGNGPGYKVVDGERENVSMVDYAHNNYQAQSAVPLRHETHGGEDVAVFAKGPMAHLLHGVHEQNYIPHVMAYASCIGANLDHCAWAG

[1] = test system: ank/ank osteoblast cultures; assay: Addition of recombinant proteins or PPi to ank/ank osteoblast cultures; assay type: cell-based, mouse
[2] = test system: PC-1-/- osteoblast cultures; assay: Addition of recombinant proteins or PPi to PC-1-/- osteoblast cultures; assay type: cell-based, mouse

Compound: N=C(N)NCCCC[C@H](N)C(=O)O [L-homoarginine]
- kind of inhibitor of TNAP activity (TNAP activity): specific uncompetitive inhibitors of TNAP activity

Compound: O=P(O)(O)OP(=O)(O)O [PPi, inorganic pyrophosphate, reference compound]
- osteopontin expression levels ([1]; osteoblast cultures deficient in ANK protein): corrected their osteopontin expression levels to those comparable to wild-type
- osteopontin expression levels ([2]; osteoblast cultures deficient in PC-1): corrected their osteopontin expression levels to those comparable to wild-type

Compound: c1ccc([C@H]2CN3CCSC3=N2)cc1 [levamisole]
- kind of inhibitor of TNAP activity (TNAP activity): specific uncompetitive inhibitors of TNAP activity

Compound: recombinant osteopontin: recombinant osteopontin added to osteoblast cultures
- mineralization capacity (matrix calcification) ([1]; ank/ank osteoblast cultures): restored to normal
- mineralization capacity (matrix calcification) ([2]; PC-1-/- osteoblast cultures): restored to normal

Reference: patent US7888372B2, “Compositions and methods for modulating bone mineral deposition” (National Institutes of Health (NIH), priority 2001, dated 2011)
